Laboratory results reported in patent US20150352114A1, “MITOTIC KINESIN Eg5 INHIBITING ANTICANCER AGENTS” (THE CLEVELAND CLINIC FOUNDATION, priority 2014, published 2015).

Columns and labels:
NSTCs = experiment: Dose response cell viability, CellTiter-Glo ATP-based assay, NSTCs; settings: Homo sapiens, 0 to 32 nM, 72 hours
From the text: Human tissues were acquired from primary human brain tumor patient specimens in accordance with appropriate approved Institutional Review Board protocols. Tumor grade and available cytogenetic information for each specimen has been previously described. Tumor specimens were maintained through subcutaneous xenografts in the flanks of athymic Nu/Nu or NSG mice. Tumors were dissociated using a papain dissociation system (Worthington Biochemical, Lakewood, N.J.). […]
The half maximal effective concentration of ispinesib for acutely dissociated and MACS sorted matched GSCs and NSTCs was determined by plating, in triplicate, 1,000 cells per well of a 96 well plate pre-coated with GelTrex in growth-factor free Neuralbasal media. […] Viability was measured at 72 hours using CellTiter-Glo ATP-based assay (Promega, Madison, Wis.) read on a luminometer (Perkin-Elmer, Waltham, Mass.). […] The next day, cells were exposed to 3 nM ispinesib or vehicle (DMSO) and viability was measured daily for 5 days using CellTiter-Glo. Day 0 reading were taken immediately after addition of drug or vehicle. SubG1 for GSCs and NSTCs was determined by flow cytometry for propidium iodide and gated as the events below the 2N G1 peak of the resulting histogram. […] Cells were fixed at Day 0 through Day 4 in 100% cold ethanol and simultaneously processed for flow analysis with 20,000 events analyzed per condition.

[1] = test system: orthotopic tumor from luciferase-expressing 3691 GSCs; experiment: Orthotopic GBM xenograft model with systemic ispinesib; type: in vivo, mice
Protocol: The tumor was isolated 5 hours later and processed for immunofluorescence to βtubulin with the nuclei counterstained with DAPI. […] 7 days later when positive luminescence signal indicated tumor burden, mice were randomized into one of two treatment groups; vehicle only (DMSO; n=10) or 10 mg/kg ispinesib (n=10) administered on a q4d×6 dosing schedule. Arrows indicate day of vehicle or drug administration.
Subcutaneous or intracranial tumors were fixed overnight in 4% PFA at 4° C., washed in PBS, cryoprotected in 30% sucrose, then embedded in optimal cutting temperature compound (OCT) and stored at −80° C. […] Sections were cut using a LeicaCMXXXX cryostat at 10 μm directly onto slides (Leica Microsystems Inc., Buffalo Grove, Ill.). Sections were postfixed for 15 minutes at room temperature in 4% PFA followed by PBS washes then incubated in blocking solution (5% goat serum, 0.1% Triton X-100 in PBS). Primary antibodies were diluted in blocking solution and used as follows overnight at 4° C.: Sox2 (rabbit, 1:500, Abcam, Cambridge, Mass., USA), atubulin (rat, 1:1000, AbD Serotec, Raleigh, N.C.). Secondary antibodies were Alexa Fluor (1:500, Invitrogen, Grand Island, N.Y., USA) labeled with 488 mixed in blocking solution and incubated for 2 hours at room temperature. DNA was stained using 4′,6-diamidino-2-phenylindole (DAPI, 10 μg/ml, Sigma, St Louis, Mo., USA) diluted in PBS for 5 minutes at room temperature.
To evaluate the efficacy of Eg5 inhibition in a more clinically relevant system, we utilized an orthotopic xenograft model to systemically deliver ispinesib. […] The tumor was sectioned and probed for tubulin to evaluate for the presence of mono-astral spindles, a hallmark of Eg5 inhibition.

08-387 GSCs [2] = experiment: Transwell in vitro invasion assay; type: cell-based, human
Protocol: 08-387 GSCs enriched in G1 (8 hours post final thymidine release) were pre-exposed to vehicle or ispinesib (200 to 0 nM at a two-fold dilution) for one hour prior to being seeded onto Matrigel coated FluoroBlok Cell Culture Inserts at 125,000 cells per insert (±vehicle or ispinesib, plated in triplicate) with Neurobasal media supplemented with 10% FBS in the lower reservoir (BD Falcon, Franklin Lakes, N.J.). After 8 hours, membranes were processed for analysis with nuclei stained with DAPI. Nuclei on the lower surface of the membrane within the central field were scored using the 20× objective on a Leica DMIRB inverted microscopes.

08-387 GSCs [3] = experiment: Nascent process analysis; type: cell-based, human; settings: 200 nM; 6-hour time course; p<0.0001
Protocol: 08-387 GSCs enriched in interphase were seeded at 6,000 cells per well of a 6 well plate and allowed to adhere for 1 hour. Cells were then exposed to vehicle or 200 nM ispinesib and images recorded over a 6-hour period using the IncuCyte ZOOM (Essen Biosciences, Ann Arbor, Mich.). Process formation was measured using CellPlayer NeuroTrack Software Module (Essen Biosciences).

[4] = test system: GSCs from patient derived xenograft 08-387; experiment: Measurement of microtubule dynamics, EB1-EGFP; type: cell-based, human; settings: 200 nM; 7 hours
Protocol: GSCs from patient derived xenograft 08-387 were cultured in Neurobasal Media, as previously described. Cells were plated on tissue culture dishes coated with GelTrex (Gibco®, Life Technologies, Carslbad, Calif.) and transfected with EB1-EGFP plasmid using FuGene® HD transfection reagent (Promega Corporation, Madison, Wis.) in a 3:1 (FuGene:DNA) ratio. Cells were transferred to GelTrex-coated 35 mm No. 1.5 glass MatTek dishes (MatTek Corporation, Ashland, Mass.) at a density of 50,000 cells per dish 48 hours following transfection, and allowed to adhere overnight prior to imaging. Dynamics measurements were obtained at 30 minutes and 7 hours following addition of vehicle (DMSO) or ispinesib (200 nM) to cell culture media.
Streaming time-lapse images of EB1-EGFP-expressing cells were acquired at 300 ms per frame for 1 minute (200 total frames) at using a Nikon TiE epifluorescence microscope (Nikon Instruments Inc., Melville, N.Y.) equipped with a Zyla 5.5 sCMOS camera (Andor Technology Ltd., Belfast, Ireland) under control of NIS Elements software (Nikon). Fluorescence illumination during imaging was provided by a SpectraX Light Engine® (Lumencor Inc., Beaverton, Oreg.) and a GFP/mCherry filter set (Chroma Technology Corp., Bellows Falls, Vt.). […]

cell lines = settings: cited from earlier work

Cc1ccc(C(=O)N(CCCN)[C@@H](c2nc3cc(Cl)ccc3c(=O)n2Cc2ccccc2)C(C)C)cc1 [ispinesib, N-(3-amino-propyl)-n-[R-1-(3-benzyl-7-choloro-4-oxo-3,4-dihydroquinazolin-2-yl)-2-methyl-propyl]-4-methyl-benzamide methanesulfonate]
EC50 (NSTCs): 1.79 ± 0.22 nM | median survival ([1]; 10 mg/kg q4d×6 intraperitoneal): 36 days | survival versus vehicle ([1]; 10 mg/kg q4d×6 intraperitoneal, p<0.001): significant survival advantage | mono-astral spindles in intracranial tumor ([1]; single 10 mg/kg dose, tumor harvested 5 hours later): numerous cells with mono-astral spindles | fewer cells migrated per field compared to vehicle control (08-387 GSCs [2]; 200 nM): approximately 6 fold | EC50 (08-387 GSCs [2]; Homo sapiens, 8 h, read-out: EC50, Transwell migration): 67.2 nM | Transwell migration (08-387 GSCs [2]; interphase-enriched cells, 8 hours): completely block | process length in GSCs (08-387 GSCs [3]): appreciably attenuated | EB1 comet velocity [4]: significant increase | microtubule growth times [4]: reduced microtubule growth times | efficacy in cell lines tested (cell lines): nanomolar efficacy
